{
  "source": "patent US11286268B1",
  "about": "“EIF4E-inhibiting compounds and methods” (EFFECTOR THERAPEUTICS, INC., priority 2019, dated 2022)",
  "key": {"recombinant eIF4E": {"molecular_target": "recombinant eIF4E (Homo sapiens (Human), UniProt P06730)", "sequence (P06730 whole entry)": "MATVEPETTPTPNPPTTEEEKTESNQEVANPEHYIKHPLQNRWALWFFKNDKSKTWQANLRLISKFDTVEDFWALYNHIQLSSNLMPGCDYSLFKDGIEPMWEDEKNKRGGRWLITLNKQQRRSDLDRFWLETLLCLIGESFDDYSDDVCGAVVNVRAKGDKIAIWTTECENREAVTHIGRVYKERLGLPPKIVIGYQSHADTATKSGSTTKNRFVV", "assay": "Fluorescence polarization competition assay for eIF4E binding potency", "method_in_brief": "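Competition of test compound against 20 nM EDA-m^7GDP-ATTO-550 for 75 nM recombinant eIF4E, pre-incubated 5 min, in 20 mM Tris pH 7.5, 100 mM NaCl, 1 mM DTT, 0.02% Tween-20, 1% DMSO. Equilibrated 30 min at room temperature, dark; fluorescence polarization read. IC50 from 8-point, 3-fold dilution series.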"}, "MDA-MB-361 cells": {"tested_on": "MDA-MB-361 cells", "assay": "Cell proliferation assay (CELLTITER-GLO)", "format": "cell-based", "conditions": "Homo sapiens, 144 h, 6 days of treatment", "procedure": "MDA-MB-361 cells were maintained in DMEM supplemented with 10% FBS and 1× penicillin/streptomycin solution at […] in a CO2 incubator. For cell proliferation assays, exponentially growing cells were seeded at 2,000 cells per well in 96-well flat bottom white polystyrene plates (ThermoFisher) and cultured overnight. The following day, compound was added in a 9 point 3-fold dilution series starting from a top concentration of 1 or 10 μM (as indicated) together with a DMSO control. The final DMSO concentration in samples was 0.1%.\nCells were incubated for up to 6 […] at 37° C. in a CO2 incubator. Baseline viability of untreated cells was measured on the day of treatment and proliferation was measured after 6 […] of treatment using CELLTITER-GLO® reagent from Promega (Madison, Wis.) according to the manufacturer's instructions. Response to compound was calculated relative to the DMSO control (% of control) using the formula, % of control (DMSO)=[(CTGcells+inhibitor)/(CTGDMSO control)]×100. Data were plotted using Prism (GraphPad software), and IC50 and Emax values were calculated from a 4 parameter, variable slope non-linear regression model. Results are shown below and in FIGS. 1-3."}},
  "note": "Where two headings read alike, the source gives them in different places.",
  "data": [
    {"smiles": "Cc1nc2cnc(N(C)C3CCN(C4CC(F)(F)C4)CC3)c(C#N)c2c(=O)n1CC#Cc1ccc(Cl)cc1-c1ccnc2c(C(=O)NS(C)(=O)=O)csc12", "note": "[compound 1188, 7-(5-chloro-2-(3-(5-cyano-6-((1-(3,3-difluorocyclobutyl)piperidin-4-yl)(methyl)amino)-2-methyl-4-oxopyrido[3,4-d]pyrimidin-3(4H)-yl)prop-1-yn-1-yl)phenyl)-N-(methylsulfonyl)thieno[3,2-b]pyridine-3-carboxamide]", "values": [
      {"measurement": "IC50", "setting": "recombinant eIF4E; fluorescence polarization competition, 75 nM recombinant eIF4E, 20 nM EDA-m7GDP-ATTO-550, IC50 class, read-out: elF4E FP", "value": "< 50", "unit": "nM"},
      {"measurement": "IC50", "setting": "recombinant eIF4E; inhibition of eIF4E/EDA-m7GDP-ATTO-550 binding by 50%, Table 4B calculated values, read-out: IC50", "value": 12.4, "unit": "nM"},
      {"measurement": "Emax", "setting": "MDA-MB-361 cells; 4 parameter non-linear regression", "value": 90.2, "unit": "%"},
      {"measurement": "IC50", "setting": "MDA-MB-361 cells; CELLTITER-GLO, % of DMSO control", "value": 46.8, "unit": "nM"}
    ]}
  ]
}
